Molecular target: T1, PctA dCache_1 domain (Pseudomonas aeruginosa, UniProt G3XD24)
T1 sequence (G3XD24 32-276 limits assumed): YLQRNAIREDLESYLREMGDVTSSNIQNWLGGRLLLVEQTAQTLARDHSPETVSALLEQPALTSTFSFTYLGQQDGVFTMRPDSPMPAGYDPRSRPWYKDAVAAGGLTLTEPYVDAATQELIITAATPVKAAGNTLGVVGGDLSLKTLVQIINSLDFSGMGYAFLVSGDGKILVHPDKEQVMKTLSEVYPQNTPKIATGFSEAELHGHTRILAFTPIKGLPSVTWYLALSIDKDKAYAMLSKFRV
Test: isothermal titration calorimetry
Assay type: binding

For `C[C@H](N)C(=O)O` [L-Ala], the KD was “Isothermal titration calorimetry study of L-Ala binding to the wild type and the mutated”.
